# According to patent publication US20260109684A1, “QUINOLINE COMPOUNDS AS MODULATORS OF RAGE ACTIVITY AND USES THEREOF” (NEW YORK UNIVERSITY, priority 2022, published 2026):
# Experiments:
# [1] = target: T1, ctRAGE (Homo sapiens, UniProt Q15109); assay: Fluorescence binding titration assay (native tryptophan fluorescence); details: 20 nM ctRAGE, 10 mM phosphate buffer pH 7.0, 5% DMSO
# T1 construct: The cytoplasmic domain of RAGE, C terminal RAGE or ctRAGE (RAGE tail)
# T1 sequence (Q15109 364-404 limits assumed): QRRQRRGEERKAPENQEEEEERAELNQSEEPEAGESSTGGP
# Protocol: Native tryptophan fluorescence experiments were conducted using a Horiba Jobin Yvon Fluorolog spectrofluorometer. 1 mM of a compound was dissolved in 10 mM phosphate buffer [pH 7.0] and 50% DMSO. 20 nM ctRAGE solution was individually titrated from 0.1 nM-100 μM with the compounds in 100 μL of 10 mM phosphate buffer [pH 7.0] and 5% DMSO. The excitation and emission wavelengths were 280 nm and 352 nm, respectively. Dissociation constants, Kd, were estimated from the changes in peak fluorescence intensities as a function of the free compound concentration by using Prism 6 software (GraphPad). Data were fit to the equation, (F−F0)/Fmax=[compound]/(Kd+[compound]) where F is the fluorescence intensity at a given compound concentration, F0 is the fluorescence intensity of the blank, and Fmax is the maximum fluorescence intensity.
# [2] = system: Murine primary aortic smooth muscle cells (SMC); assay: Murine primary aortic smooth muscle cell (SMC) migration, wounding assay; type: cell-based, mice; details: Mus musculus; inhibition of migration; compounds incubated 1.5 h, then CML-AGE (10 μg/ml) or PDGF-BB (10 ng/ml) for 4 h
# Protocol: Murine SMCs were cultured from the aortas of 10-week old male mice as described in M. B. Manigrasso, J. Pan, V. Rai, J. Zhang, S. Reverdatto, N. Quadri, R. J. DeVita, R. Ramasamy, A. Shekhtman, A. M. Schmidt, Small Molecule Inhibition of Ligand-Stimulated RAGE-DIAPH1 Signal Transduction. Scientific reports 6, 22450 (2016). Wild-type murine aortic SMCs were isolated and used between passages 8 to 12. Migration in response to the RAGE ligand CML-AGE (CML, 10 μg/ml) or a general effector, not a RAGE ligand, PDGF-BB, 10 ng/ml (R&D systems) was assessed with a wounding assay as also described in M. B. Manigrasso, J. Pan, V. Rai, J. Zhang, S. Reverdatto, N. Quadri, R. J. DeVita, R. Ramasamy, A. Shekhtman, A. M. Schmidt, Small Molecule Inhibition of Ligand-Stimulated RAGE-DIAPH1 Signal Transduction. Scientific reports 6, 22450 (2016). Briefly, cells were grown to confluence in 24-well plates and starved overnight. The following morning, serum free media (SFM) was removed and compounds were added per dose response. Immediately following the addition of compounds, the monolayer was wounded using a p10 pipette tip. The compounds were allowed to incubate for 1.5 h. Following this incubation, all compounds were removed and fresh media containing RAGE ligand, CML-AGE (10 μg/ml), or general effector, PDGF-BB (10 ng/ml), was added for 4 h. Cells were maintained at 37° C. and 5% CO2. Images were taken at 4 h. Each image was measured, and an area ingrowth of effective migrating cells was calculated. Results are shown in FIGS. 12-20 and Table 2 below.
# [3] = system: ob ob mice; assay: Wound healing of full thickness excisional wounds in ob ob mice; type: in vivo; details: male and female ob ob mice; 5 mg/kg twice daily topical, day 3 through day 10; days 14 and 21 post-surgery
# Protocol: RAGE 406R was tested in male and female ob ob mice (model of obesity and type 2 diabetes) for potential benefits in wound healing. Full thickness excisional wounds were created on the backs of 8 week old ob ob mice, as described in Manigrasso et al., “Small-molecule antagonism of the interaction of the RAGE cytoplasmic domain with DIAPH1 reduces diabetic complications in mice,” Sci Transl Med. 13 (621):eabf7084 (2021). Beginning on day 3 after the surgery, mice received RAGE 406R (5 mg/kg) twice daily by topical administration under the Tegaderm through day 10 post-operatively. The wounds were photographed on days 0, 7, 14, and 21 and the % wound closure (compared to baseline) was calculated for each mouse. The Mean+/−Standard Error of the Mean is shown in FIGS. 23A-B along with representative images (FIGS. 23C-D).
Kd [1],IC50 [2],SMILES,% wound closure compared to vehicle-treated animals [3]
3 nM,28 nM,N#Cc1ccc2c(CN3CCOCC3)cc(-c3ccc(C4CCC(=O)N4)cc3)nc2c1 (racemic) [RAGE 406],–
1 nM,2.6 nM,N#Cc1ccc2c(CN3CCOCC3)cc(-c3ccc(C(N)=O)cc3)nc2c1 [RAGE 283],–
20 nM,270 nM,"N#Cc1ccc2c(CN3CCOCC3)cc(-c3ccc(CN)cc3)nc2c1 [RAGE 286, 2-(4-(aminomethyl)phenyl)-4-(morpholinomethyl)quinoline-7-carbonitrile]",–
3 nM,18 nM,"CC(=O)NCc1ccc(-c2cc(C(=O)N3CCOCC3)c3ccc(C#N)cc3n2)cc1 [RAGE 289, N-(4-(7-cyano-4-(morpholine-4-carbonyl)quinolin-2-yl)benzyl) acetamide]",–
1 nM,6 nM,N#Cc1ccc2c(CN3CCOCC3)cc(-c3ccc(C(=N)N)cc3)nc2c1 [RAGE 290],–
12 nM,–,N#Cc1ccc2c(CN3CCOCC3)cc(-c3ccc(CC(N)=O)cc3)nc2c1 [RAGE 291],–
8 nM,93 nM,CN(C)Cc1ccc(-c2cc(CN3CCOCC3)c3ccc(C#N)cc3n2)cc1 [RAGE 299],–
–,905 nM,N#Cc1ccc2c(CN3CCOCC3)cc(-c3ccc(CN4CCCC4)cc3)nc2c1 [RAGE 401],–
3 nM,136 nM,"N#Cc1ccc2c(CN3CCOCC3)cc(-c3ccc(CCN)cc3)nc2c1 [RAGE 402, 2-(4-(2-aminoethyl)phenyl)-4-(morpholinomethyl)quinoline-7-carbonitrile]",–
0.6 nM,1 nM,N#Cc1ccc2c(CN3CCOCC3)cc(-c3ccc([C@H]4CCC(=O)N4)cc3)nc2c1 [RAGE 406R],significantly higher wound closure
2 nM,1160 nM,N#Cc1ccc2c(CN3CCOCC3)cc(-c3ccc([C@@H]4CCC(=O)N4)cc3)nc2c1 [RAGE 406S],–
2 nM,153 nM,N#Cc1ccc2c(C(=O)N3CCOCC3)cc(-c3ccc(C4CCCN4)cc3)nc2c1 (centres unmarked) [RAGE 407],–
